Several values for one entry are separate records, joined by “and”; a condition that tells them apart may be missing. Identical values can stand only once.
What was measured:
Type in all cases: cell-based, human
DPH1 gene [1] = assay: PM resistant colony count after DPH1 gene editing (PAC cassette integration); conditions: for # of PM resistant colonies (40,000 seeded cells): MCF7, individual samples A-D; for # of PM resistant colonies (mean of the samples) / # of PM resistant colonies: TF eff. = 38%; for # of PM resistant colonies: DPH1 assay (integr. vs. k.o.), individual samples; for # of PM resistant colonies (80,000 seeded cells): DPH1 assay editing entities, MCF-7, individual replicates, TF eff. = 33%
Method: MCF7 cells (Brooks, et al. 1973) were originally obtained from ATCC (subsequently propagated in an in-house cell bank) and maintained in RPMI […] medium supplemented with 10% FCS, 2 mM L-Glutamine and penicillin/streptomycin at 37° C. and 85% humidity. For transfection of plasmids harboring gene-editing modules, 3,000,000 cells were seeded in a 10 cm diameter culture dish and cultivated at 37° C. and humidified 5% CO2. 24 h after seeding, cells were transfected with 20 μg total DNA using JetPEI (Polyplus) according to the manufacturer's protocol but with an N/P ratio of 6:1. Transfection efficiency was determined after 24 h by flow cytometry (FACS Calibur, BD biosciences) of cells that were transfected with a modified eGFP expression plasmid (Zhang, et al. 1996).
Plasmids encoding CRISPR/Cas9 gene-editing entities (i.e. knock-out and integration systems) against Dph1 (gRNA target sequence: […] (SEQ ID NO: 01) derived from RefSeq: NM_001383) and Dph2 (gRNA target sequence: […] (SEQ ID NO: 02) derived from RefSeq: NM_001039589, NM_001384), and scrambled control (gRNA sequence: […] (SEQ ID NO: 03)) were obtained from OriGene. This system comprises one plasmid expressing a ˜100 nt gRNA under control of a U6 promoter as well as Cas9 nuclease under control of a CMV promoter and a Donor plasmid with a promoter-less GFP/PM expression cassette flanked by homologous arms to the target gene (Dph1 or Dph2). Additional Dph1 gRNA sequence variants of different sizes (OriGene) […]
MCF7 cells which have all chromosomal copies of DPH1 or DPH2 inactivated are resistant to diphtheria toxin (Stahl, et al. 2015). Thus, occurrence and frequency of toxin resistant cells/colonies upon CRISPR/Cas inflicted gene inactivation provides a measure for efficiency of inactivation of all gene copies. Therefore, MCF/cells were transfected as described in Example 1 with (i) a GFP expression plasmid as transfection control, (ii) the CRISPR/Cas9 Dph1 or Dph2 knock-out/integration system and (iii) knock-out/integration entities containing a scrambled gRNA to determine Cas9 independent integration frequencies. After determination of transfection efficiency, cells were seeded in 6-well plates. […] RPMI medium was exchanged by RPMI medium containing DT or PM or both toxins 3 days after cell seeding. Exchange of medium was repeated every 2-3 days until all dead cells were removed from the plates and actively growing colonies could be detected via microscopic inspection. Thereafter (between day 12 and day 14 after start of toxin exposure), cells were washed 3 times with PBS and subsequently stained with ice cold methylene blue (0.2% in 50% EtOH). Methylene blue solution was subsequently removed and the plates were carefully washed under running water. Finally, cell colonies were counted under the microscope with a 5 mm grid foil.
CRISPR/Cas module for targeted integration contains a puromycin (PM) resistance gene expression cassette without promoter to avoid transient expression. Thus, detection of integration of recombinant sequences into the genome was detected by determining sensitivity of cells towards PM. A concentration of […] PM (which quantitatively eliminates wildtype MCF7 cells) was applied to select MCF7 cells with stably integrated expression cassettes. PM-resistant colonies selected with the same procedure as described above for the DT selection and visualized and quantified (between 12 and 14 days after start of selection) in the same manner as described above for toxin resistant colonies. Number of PM resistant colonies obtained with non-target guide sequences (scrambled gRNA, FIG. 1) reflect the nonspecific integration background. Increase in colonies (above nonspecific background) obtained with target-gene gRNAs which are PM-resistant but toxin sensitive reflect integration into just one target allele, leaving the other dph1 or dph2 allele unaffected. […]

DPH1 gene [2] = assay: HRM-PCR on single cells followed by DT sensitivity assay; conditions: FIG. 5B
Method: Cells which have only one allele of dph1 or dph2 modified are not toxin resistant. To identify and quantify those events, high resolution melting (HRM) PCR was applied in a similar manner as described by Stahl et al (Stahl, et al. 2015): 24 h after transfection, single cells were deposited in 96-well plates by FACS (FACSAria, BD biosciences) and grown until confluency. Cells were washed with PBS and lysed by addition of 40 μL cell lysis buffer (Roche) per well. After 15 mins incubation at RT on a plate shaker (Titramax 1000, Heidolph) at 750 rpm, the cell lysate was 1:5 diluted with PCR grade H2O. 5 μL cell lysate was mixed with a High resolution melting (HRM) master mix (Roche) and with primer spanning the gRNA target sequence. PCR and HRM were performed in an LC480 II (Roche) according the manufacturer's protocol. Clones with edited target genes were identified by their altered melting curve compared to MCF7-WT cells.
Therefore, such clones were expanded (without toxin or Puromycin selection) and subjected to cell viability analyses to discriminate between heterozygous (toxin sensitive) and homozygous (resistant) knockout cells. […] Metabolic activity of surviving cells was assessed by a CellTiterGlo® Luminescent Viability Assay (Promega) performed according to the manufacturer's specifications.

DPH1 gene [3] = assay: DT resistant colony count after DPH1 gene editing (homozygous gene inactivation); conditions: for # of DT resistant colonies (mean of the samples) / # of DT resistant colonies: TF eff. = 38%; for # of DT resistant colonies: DPH1 assay (integr. vs. k.o.), individual samples; for # of DT resistant colonies (40,000 seeded cells): DPH1 assay editing entities, MCF-7, individual replicates, TF eff. = 33%
[4] = DPH1 (gRNA length), TF eff. = 31%
[5] = DPH1 assay (integr. vs. (integr. + k.o.)), TF eff. = 67*%
[6] = DPH1 assay (integr. vs. k.o.), 10,000 seeded cells
[7] = DPH1 assay (integr. vs. k.o.), 20,000 seeded cells
[8] = DPH1 assay (integr. vs. k.o.), 40,000 seeded cells
[9] = MCF7, 10,000 seeded cells, listed as CRISPR Cas9 Dph1 gRNA
[10] = MCF7, 40,000 seeded cells, listed as CRISPR Cas9 Dph1 gRNA

| Substance | # of PM resistant colonies (40,000 seeded cells) (unheaded second sub-column: mean) (DPH1 gene [1]; [4]) | # of PM resistant colonies (40,000 seeded cells) (unheaded second sub-column: mean) (DPH1 gene [1]; [5]) | # of PM resistant colonies (mean of the samples) (DPH1 gene [1]; [6]) | # of PM resistant colonies (mean of the samples) (DPH1 gene [1]; [7]) | # of PM resistant colonies (mean of the samples) (DPH1 gene [1]; [8]) | # of PM resistant colonies (DPH1 gene [1]; MCF7, 10,000 seeded cells) | # of PM resistant colonies (DPH1 gene [1]; MCF7, 20,000 seeded cells) | # of PM resistant colonies (DPH1 gene [1]; MCF7, 40,000 seeded cells) | # of PM resistant colonies (80,000 seeded cells) (DPH1 gene [1]) | # of DT resistant colonies (mean of the samples) (DPH1 gene [3]; [6]) | # of DT resistant colonies (mean of the samples) (DPH1 gene [3]; [8]) | # of DT resistant colonies (DPH1 gene [3]; MCF7, 40,000 seeded cells) | # of DT resistant colonies (40,000 seeded cells) (DPH1 gene [3]) | other results |
| --- | --- | --- | --- | --- | --- | --- | --- | --- | --- | --- | --- | --- | --- | --- |
| 20 mer SpCas9 DPH1 gRNA: Plasmids encoding SpCas9 and Dph1 gRNA (target CAGGGCGGCCGAGACGGCCC, SEQ ID NO: 01) plus PAC donor plasmid, OriGene | 15 | 24 | 9 | 13 | 24 | 7 and 10 (2×) and 29 | 18 and 13 (2×) and 6 | 29 and 12 and 30 and 24 | 14 and 11 and 9 and 10 | 218 | 947 | 995 and 942 and 899 and 950 | 476 and 492 and 468 and 472 | # of PM resistant colonies (40,000 seeded cells) (DPH1 gene [1]; [4]): 16 (2×) and 20 and 8; # of PM resistant colonies (40,000 seeded cells) (DPH1 gene [1]; DPH1 (gRNA length), TF eff. = 31%, listed as 20 mer Dph1 CRISPR Cas9 gRNA): 16 (2×) and 20 and 8; # of PM resistant colonies (40,000 seeded cells) (DPH1 gene [1]; [5]): 25 (2×) and 22 and 24; # of PM resistant colonies (40,000 seeded cells) (DPH1 gene [1]; DPH1 assay (integr. vs. (integr. + k.o.)), TF eff. = 67*%, listed as Dph1 CRISPR Cas9 gRNA): 25 (2×) and 22 and 24; # of PM resistant colonies (DPH1 gene [1]; [9]): 7 and 10 (2×); # of PM resistant colonies (DPH1 gene [1]; MCF7, 20,000 seeded cells, listed as CRISPR Cas9 Dph1 gRNA): 18 and 13 (2×) and 6; # of PM resistant colonies (DPH1 gene [1]; [10]): 29 and 12 and 30 and 24; integration efficacy in dependence on gRNA length (DPH1 gene [1]; PMr colonies): Targeted integration clearly above background was observed; mono-allelic gene inactivation (toxin sensitive, HRM confirmed) versus inactivation of both alleles (DTr) (DPH1 gene [2]): twice as frequent; # of DT resistant colonies (DPH1 gene [3]; [9]): 201 and 224 and 219; # of DT resistant colonies (DPH1 gene [3]; [10]): 995 and 942 and 899 and 950 |
| 20 mer SpCas9 scRNA: Scrambled control gRNA GCACTACCAGAGCTAACTCA (SEQ ID NO: 03) with SpCas9 and donor plasmid [reference compound] | 8 | 11 | 3 | 9 | 12 | 3 (2×) and 2 and 4 | 11 and 7 and 10 and 9 | 17 and 13 and 9 and 10 | 4 and 3 and 5 | 0 | 0 | 0 | 0 | # of PM resistant colonies (40,000 seeded cells) (DPH1 gene [1]; DPH1 (gRNA length), TF eff. = 31%, listed as 20 mer scRNA): 7 and 6 and 9 and 10; # of PM resistant colonies (40,000 seeded cells) (DPH1 gene [1]; DPH1 assay (integr. vs. (integr. + k.o.)), TF eff. = 67*%, listed as 20 mer scRNA): 10 (2×) and 9 and 16; # of PM resistant colonies (40,000 seeded cells) (DPH1 gene [1]; DPH1 assay (integr. vs. (integr. + k.o.)), TF eff. = 67*%, listed as SCRNA): 16; # of PM resistant colonies (40,000 seeded cells) (DPH1 gene [1]; DPH1 assay (integr. vs. (integr. + k.o.)), TF eff. = 67*%, listed as scRNA): 10 (2×) and 9; # of PM resistant colonies (DPH1 gene [1]; MCF7, 10,000 seeded cells, listed as CRISPR Cas9 SCRNA): 3 (2×) and 2 and 4; # of PM resistant colonies (DPH1 gene [1]; MCF7, 20,000 seeded cells, listed as CRISPR Cas9 SCRNA): 11 and 10 and 9; # of PM resistant colonies (DPH1 gene [1]; MCF7, 20,000 seeded cells, listed as CRISPR Cas9 scRNA): 7; # of PM resistant colonies (DPH1 gene [1]; MCF7, 40,000 seeded cells, listed as CRISPR Cas9 SCRNA): 17 and 9 and 10; # of PM resistant colonies (DPH1 gene [1]; MCF7, 40,000 seeded cells, listed as CRISPR Cas9 scRNA): 13; fold less PMr colonies than with DPH1-specific gRNA (DPH1 gene [1]; otherwise identical conditions): 2 fold; # of DT resistant colonies (DPH1 gene [3]; MCF7, 10,000 seeded cells): 0 |

Reference: patent publication US20250250559A1, “METHOD TO ANALYZE AND OPTIMIZE GENE EDITING MODULES AND DELIVERY APPROACHES” (Hoffmann-La Roche Inc., priority 2016, published 2025)
